According to patent US11214803B2, “Modulators of YAP1 expression” (Ionis Pharmaceuticals, Inc., priority 2019, dated 2022):
Marks after values point to notes of the source that are not given here. Strand notation (5' to 3'): a small letter for the sugar, then the base; units joined by * are phosphorothioate-linked, units joined directly phosphodiester-linked; [ ] holds rarer units or linkages, { } end groups; capitals alone tell only the bases. k = constrained ethyl (cEt); [5mC] = 5-methylcytosine; d = 2'-deoxy (DNA)

System: Yap1 mRNA
Assay: Antisense inhibition of human Yap1 in A-431 cells by cEt gapmers, single dose (Example 3, RTS36584)
Format: cell-based
In short: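 A-431 cells were treated by free uptake with 2,000 nM modified oligonucleotide (3-10-3 cEt gapmers, full phosphorothioate, 5-methylcytosines) for about 48 hours. Yap1 mRNA was quantified by real-time RT-PCR, normalized to RiboGreen total RNA, and expressed as % of untreated control; asterisked values mark oligonucleotides targeting the amplicon region.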

[1] = Table 34, Yap1 mRNA as percent of untreated control, 3-10-3 cEt gapmers targeting SEQ ID NO: 1 and 2, single dose
[2] = Table 29, Yap1 mRNA as percent of untreated control, 3-10-3 cEt gapmers targeting SEQ ID NO.: 1, and 2
[3] = Table 27, Yap1 mRNA by 3-10-3 cEt gapmers targeting SEQ ID NO.: 1, and 2, percent of untreated control
[4] = Table 13, A-431 cells, 5,000 cells per well, free uptake, 2,000 nM modified oligonucleotide, approx. 48 hours, RTS36584, normalized to RIBOGREEN, Yap1 mRNA relative to untreated control cells
[5] = Table 9, A-431 cells, 5,000 cells per well, free uptake, 2,000 nM, approximately 48 hours, RTS36584, normalized to RIBOGREEN, Yap1 mRNA relative to untreated control cells
[6] = Table 35, Yap1 mRNA as percent of untreated control, 3-10-3 cEt gapmers targeting SEQ ID NO: 1 and 2, single dose
[7] = Table 11, A-431 cells, 5,000 cells per well, free uptake, 2,000 nM oligonucleotide, approx. 48 hours, primer probe set RTS36584, Yap1 mRNA normalized to RIBOGREEN, percent of untreated control
[8] = Table 8, A-431 cells, 5,000 cells per well, free uptake, 2,000 nM, approximately 48 hours, RTS36584, normalized to RIBOGREEN, Yap1 mRNA relative to untreated control cells
[9] = Table 28, Yap1 mRNA as percent of untreated control, 3-10-3 cEt gapmers targeting SEQ ID NO.: 1, and 2
[10] = Table 12, A-431 cells, 5,000 cells per well, free uptake, 2,000 nM modified oligonucleotide, approx. 48 hours, RTS36584, normalized to RIBOGREEN, Yap1 mRNA relative to untreated control cells
[11] = Table 10, A-431 cells, 5,000 cells per well, free uptake, 2,000 nM oligonucleotide, approx. 48 hours, primer probe set RTS36584, Yap1 mRNA normalized to RIBOGREEN, percent of untreated control

## 1074868 (kG*kT*kA*d[5mC]*d[5mC]*dT*dA*dA*d[5mC]*dA*dT*dA*dT*kG*kA*kG; antisense) [compound 1074868]
[1]
  YAP1 (% UTC): 74 % UTC

## 1075247 (k[5mC]*kT*kA*dA*dG*dA*dT*dA*dA*d[5mC]*dT*dA*dG*kT*kA*kA; antisense) [compound 1075247]
[2]
  YAP1 (% UTC): 101 % UTC

## 1074637 (antisense kA*kA*kT*d[5mC]*dT*dA*dT*d[5mC]*dT*dT*d[5mC]*d[5mC]*d[5mC]*kA*kA*kG) [compound 1074637]
[3]
  YAP1 (% UTC): 36 % UTC

## 1074349 (antisense k[5mC]*kT*kG*dT*dA*d[5mC]*dT*d[5mC]*dT*d[5mC]*dA*dT*d[5mC]*kT*k[5mC]*kG) [compound 1074349]
[3]
  YAP1 (% UTC): 30 % UTC

## 958545 (kA*k[5mC]*kT*d[5mC]*dT*dA*dG*dT*dT*dA*d[5mC]*dA*dT*k[5mC]*kA*kT; antisense) [Compound 958545]
[4]
  YAP1 (% UTC): 3 % UTC

## 958646 (kT*kA*kT*dT*dA*dT*dA*dT*dG*dG*d[5mC]*dT*dA*kA*kG*k[5mC]; antisense) [Compound 958646]
[5]
  YAP1 (% UTC): 26 % UTC

## 1075189 (kG*k[5mC]*kT*dA*dA*dT*dA*dG*dT*d[5mC]*dA*d[5mC]*dT*kG*kT*kT; antisense) [compound 1075189]
[6]
  YAP1 (% UTC): 11 % UTC

## 1074605 (DNA kT*k[5mC]*kA*dA*d[5mC]*dT*dA*d[5mC]*d[5mC]*dA*dA*dT*dA*kT*kA*k[5mC]) [compound 1074605]
[3]
  YAP1 (% UTC): 20 % UTC

## 958658 (kA*k[5mC]*kA*dG*dT*dA*dT*dA*dA*dT*dA*dT*d[5mC]*k[5mC]*kT*kA; antisense) [Compound 958658]
[7]
  YAP1 (% UTC): 6 % UTC

## 958416 (antisense kG*k[5mC]*kT*dG*dT*dG*dT*dA*dG*dG*d[5mC]*dT*dG*kA*k[5mC]*kT) [Compound 958416]
[8]
  YAP1 (% UTC): 36 % UTC

## 958366 (antisense kT*kG*kT*dA*dG*d[5mC]*dT*dG*d[5mC]*dT*d[5mC]*dA*dT*kG*k[5mC]*kT) [Compound 958366]
[8]
  YAP1 (% UTC): 16* % UTC

## 958364 (antisense k[5mC]*kA*kT*dG*dT*dT*dG*dT*dT*dG*dT*d[5mC]*dT*kG*kA*kT) [Compound 958364]
[8]
  YAP1 (% UTC): 19 % UTC

## 958781 (antisense kG*kT*k[5mC]*dA*dT*d[5mC]*dT*dA*dT*dG*dT*dG*dT*k[5mC]*k[5mC]*kT) [Compound 958781]
[5]
  YAP1 (% UTC): 6 % UTC

## 958455 (antisense kA*kG*kA*dG*dG*dA*dA*dT*dG*dA*dG*d[5mC]*dT*k[5mC]*kG*kA) [Compound 958455]
[4]
  YAP1 (% UTC): 43 % UTC

## 958640 (antisense kT*kA*kG*dA*dT*dA*dA*d[5mC]*dT*dG*dT*d[5mC]*dT*k[5mC]*k[5mC]*k[5mC]) [Compound 958640]
[4]
  YAP1 (% UTC): 13 % UTC

## 1075278 (antisense kT*kA*kT*dA*d[5mC]*dT*dA*dA*d[5mC]*dA*dT*dT*d[5mC]*kA*k[5mC]*kG) [compound 1075278]
[9]
  YAP1 (% UTC): 48 % UTC

## 1076046 (k[5mC]*kT*kT*dA*dA*dA*dT*dG*dG*dT*dG*d[5mC]*dA*kA*kT*kA; antisense) [compound 1076046]
[9]
  YAP1 (% UTC): 28 % UTC

## 958643 (antisense kT*kA*kG*d[5mC]*dA*dA*d[5mC]*d[5mC]*d[5mC]*dA*d[5mC]*d[5mC]*d[5mC]*kT*kG*kG) [Compound 958643]
[7]
  YAP1 (% UTC): 59 % UTC

## 1074541 (k[5mC]*kA*k[5mC]*dT*dA*dT*d[5mC]*d[5mC]*dA*d[5mC]*dA*dG*dT*kA*kA*kT; antisense) [compound 1074541]
[3]
  YAP1 (% UTC): 23 % UTC

## 1075309 (antisense kT*kA*kA*dT*dT*dA*dA*dA*d[5mC]*dG*dA*dA*dA*k[5mC]*kA*k[5mC]) [compound 1075309]
[3]
  YAP1 (% UTC): 110 % UTC

## 1074863 (kA*kT*kA*dT*dG*dA*dG*d[5mC]*dA*dT*dG*d[5mC]*dT*k[5mC]*kT*kT; antisense) [compound 1074863]
[2]
  YAP1 (% UTC): 41 % UTC

## 1075501 (k[5mC]*kA*kT*dA*dA*dA*dT*dT*dA*dA*dG*d[5mC]*d[5mC]*kA*kA*k[5mC]; antisense) [compound 1075501]
[3]
  YAP1 (% UTC): 67 % UTC

## 958569 (kA*kG*k[5mC]*d[5mC]*dT*dT*dA*dG*dA*dG*dT*d[5mC]*dA*kA*kT*kT; antisense) [Compound 958569]
[10]
  YAP1 (% UTC): 3 % UTC

## 958641 (antisense kA*kG*k[5mC]*dT*dA*d[5mC]*dA*dG*dA*dG*d[5mC]*dT*dT*kA*kA*k[5mC]) [Compound 958641]
[5]
  YAP1 (% UTC): 102 % UTC

## 1075373 (antisense kT*kA*kT*dA*dT*dA*dT*dA*dG*dA*d[5mC]*dT*dT*kG*kA*kG) [compound 1075373]
[3]
  YAP1 (% UTC): 13 % UTC

## 1074924 (antisense k[5mC]*k[5mC]*kT*dG*d[5mC]*dA*dA*dA*dT*dA*dG*dG*dA*kG*kA*kG) [compound 1074924]
Table 26, Yap1 mRNA by 3-10-3 cEt gapmers targeting SEQ ID NO.: 1, and 2, percent of untreated control
  YAP1 (% UTC): 87 % UTC

## 1075604 (antisense kA*kT*kA*dA*dT*dT*dA*dA*dG*d[5mC]*dT*dA*dT*k[5mC]*kA*k[5mC]) [compound 1075604]
[1]
  YAP1 (% UTC): 81 % UTC

## 958454 (antisense kG*kG*kA*dA*dT*dG*dA*dG*d[5mC]*dT*d[5mC]*dG*dA*kA*k[5mC]*kA) [Compound 958454]
[10]
  YAP1 (% UTC): 3 % UTC

## 1075245 (k[5mC]*k[5mC]*kT*dA*dA*dT*dA*dT*dG*d[5mC]*dT*dA*dT*kT*kG*kT; antisense) [compound 1075245]
[3]
  YAP1 (% UTC): 34 % UTC

## 1074317 (antisense kG*kA*kG*dA*dA*dT*dT*dT*dG*d[5mC]*dT*dG*dT*kG*k[5mC]*kT) [compound 1074317]
[3]
  YAP1 (% UTC): 12 % UTC

## 958587 (kG*kG*kT*dG*dA*d[5mC]*dT*dG*dA*dA*dA*d[5mC]*dT*k[5mC]*kT*kA; antisense) [Compound 958587]
[11]
  YAP1 (% UTC): 2 % UTC

## 958372 (antisense kG*kG*kT*dG*d[5mC]*dT*dA*dG*d[5mC]*dT*dG*dG*dT*kG*k[5mC]*k[5mC]) [Compound 958372]
[8]
  YAP1 (% UTC): 49 % UTC

## 958477 (antisense kA*kT*kT*dT*d[5mC]*d[5mC]*dG*dG*dT*dG*d[5mC]*dA*dT*kG*kT*kG) [Compound 958477]
[11]
  YAP1 (% UTC): 2 % UTC

## 958353 (antisense kT*k[5mC]*kG*dG*dT*d[5mC]*dT*d[5mC]*d[5mC]*dG*dA*dG*dT*k[5mC]*k[5mC]*k[5mC]) [Compound 958353]
[8]
  YAP1 (% UTC): 43 % UTC

## 1074869 (kA*kG*kT*dA*d[5mC]*d[5mC]*dT*dA*dA*d[5mC]*dA*dT*dA*kT*kG*kA; antisense) [compound 1074869]
[6]
  YAP1 (% UTC): 31 % UTC

## 958397 (antisense k[5mC]*kA*kG*dG*d[5mC]*dT*dA*dT*dT*dA*dA*dG*d[5mC]*kT*kG*kT) [Compound 958397]
[8]
  YAP1 (% UTC): 127 % UTC

## 1075669 (antisense kA*kA*kA*dT*dT*dA*dT*dT*dG*dG*dT*dG*dA*k[5mC]*kA*k[5mC]) [compound 1075669]
[6]
  YAP1 (% UTC): 70 % UTC

## 1076175 (k[5mC]*kA*kA*dT*dA*dG*dG*dT*dA*dA*d[5mC]*dA*dG*kG*kT*kA; antisense) [compound 1076175]
[2]
  YAP1 (% UTC): 15 % UTC

## 958550 (k[5mC]*k[5mC]*kT*dG*dT*dA*dG*dA*d[5mC]*dA*d[5mC]*dA*dT*kA*k[5mC]*kT; antisense) [Compound 958550]
[4]
  YAP1 (% UTC): 4 % UTC

## 1076173 (k[5mC]*kA*kA*dT*dA*dT*dA*dT*d[5mC]*d[5mC]*dT*dG*dA*kG*kA*kT; antisense) [compound 1076173]
[3]
  YAP1 (% UTC): 91 % UTC

## 1076270 (kT*kA*kA*d[5mC]*dA*dA*dT*dA*dG*dT*dA*dG*dA*k[5mC]*kG*kA; antisense) [compound 1076270]
[9]
  YAP1 (% UTC): 28 % UTC

## 958792 (antisense kG*k[5mC]*k[5mC]*dA*dA*dT*dG*dG*dA*dG*dT*d[5mC]*dA*k[5mC]*k[5mC]*kA) [Compound 958792]
[11]
  YAP1 (% UTC): 46 % UTC

## 958689 (antisense k[5mC]*kA*kT*dT*dA*dA*dG*dG*dA*dG*dG*dT*dT*kA*kT*kG) [Compound 958689]
[10]
  YAP1 (% UTC): 87 % UTC

## 958472 (antisense kT*k[5mC]*k[5mC]*dT*dT*dA*dG*dA*dT*d[5mC]*d[5mC]*dT*dT*k[5mC]*kA*k[5mC]) [Compound 958472]
[11]
  YAP1 (% UTC): 5 % UTC

## 1074383 (kT*k[5mC]*kA*dA*dG*dG*dT*dA*dG*dT*d[5mC]*dT*dG*kG*kG*kA; antisense) [compound 1074383]
[2]
  YAP1 (% UTC): 40 % UTC

## 1075413 (antisense k[5mC]*kA*kT*dA*dA*d[5mC]*dT*dA*d[5mC]*dA*dT*d[5mC]*dG*kA*k[5mC]*kA) [compound 1075413]
[6]
  YAP1 (% UTC): 34 % UTC

## 1075508 (kG*kA*kA*dA*dA*dA*dG*dG*dT*dT*dT*dA*dG*kG*kG*kT; antisense) [compound 1075508]
[1]
  YAP1 (% UTC): 84 % UTC
